From patent US20240252496A1, “SELECTIVE HYPOTHALAMUS PERMEABLE HDAC6 INHIBITORS FORTREATMENT OF LEPTIN-RESISTANT OBESITY” (The Children’s Medical Center Corporation, priority 2022, published 2024)
“Also recorded” adds a separate entry of the source.

Experiments:
DIO mice [1] = experiment: Chronic treatment of DIO mice (body weight, food intake, leptin, DEXA); format: in vivo; settings: for body weight effect of chronic treatment: DIO mice, 3 weeks i.p., bavarostat 10, citarinostat 25, ricolinostat 50 mg/kg; for food intake and total body fat mass: high fat diet induced mice, summary
Protocol: DIO mice were treated with ACY775 (10 mg/kg/day, i.p.) for 3 weeks. Daily body weight (g) of DIO mice treated with vehicle (n=17) or ACY775 (n=17) during 3 weeks of treatment was determined. Daily food intake (g) during 3 weeks of vehicle or ACY775 treatment was assessed. 24 hours' food intake per mouse during the first week of vehicle or ACY775 treatment was determined. Serum leptin (ng/ml) levels after 3 weeks of vehicle (n=24) or ACY775 (n=24) treatment was assessed. Lean mass (g), fat mass (g) and fat percentage (%) after 3 weeks of vehicle (n=17) or ACY775 (n=17) treatment measured by Dual-energy X-ray absorptiometry (DEXA) scan. DEXA scans were performed in two different cohorts. Glucose tolerance test (GTT) after 1 week of vehicle (n=33) or ACY775 (n=26) treated DIO mice was assessed. Area of curve (AOC) analysis for GTT was performed. Blood glucose (mg/dl) levels after 1 week of vehicle (n=17) or ACY775 (n=16) were assessed in treated DIO mice. Insulin tolerance test (ITT) was performed after 2 weeks of vehicle (n=31) or ACY775 (n=21) treatment of DIO mice. Serum insulin (ng/ml) levels were measured after 3 weeks of vehicle (n=22) or ACY775 (n=21) in treated DIO mice. A homeostatic model assessment of insulin resistance (HOMA-IR) was analyzed after 3 weeks of vehicle (n=14) or ACY775 (n=13) treated DIO mice.
Food intake was analyzed hourly until 3:00 am. […] DEXA scans were performed in two different cohorts.
DIO mice then were treated with ricolinostat (50 mg/kg, i.p.) for 3 weeks. Daily body weight (g), daily food intake (g), serum leptin (ng/ml) levels after 3 weeks of vehicle (n=8) or ricolinostat (n=8) treatment, lean mass (g); fat mass and fat percentage (%) after 3 weeks of vehicle (n=16) or ricolinostat (n=17) treatment measured by DEXA scan were determined.
Studies were conducted as described above with reference to ACY775.
DIO mice then were treated with bavarostat (10 mg/kg, i.p.) for 3 weeks and daily body weight (g) of DIO mice treated with Veh (n=9) or bavarostat (n=9) measured during the three weeks of treatment period. Daily food intake (g) during 3 weeks of Veh or bavarostat treatment was also measured.
ACY1083 was administered to DIO mice as described in Example 3.

HDAC6 = HDAC6 (Mus musculus (Mouse), UniProt Q9Z2V5); experiment: HDAC6 inhibition in hypothalamus and other brain regions (Ac-tubulin); set-up: species or system mice; settings: in vivo
HDAC6, sequence (Q9Z2V5 whole entry): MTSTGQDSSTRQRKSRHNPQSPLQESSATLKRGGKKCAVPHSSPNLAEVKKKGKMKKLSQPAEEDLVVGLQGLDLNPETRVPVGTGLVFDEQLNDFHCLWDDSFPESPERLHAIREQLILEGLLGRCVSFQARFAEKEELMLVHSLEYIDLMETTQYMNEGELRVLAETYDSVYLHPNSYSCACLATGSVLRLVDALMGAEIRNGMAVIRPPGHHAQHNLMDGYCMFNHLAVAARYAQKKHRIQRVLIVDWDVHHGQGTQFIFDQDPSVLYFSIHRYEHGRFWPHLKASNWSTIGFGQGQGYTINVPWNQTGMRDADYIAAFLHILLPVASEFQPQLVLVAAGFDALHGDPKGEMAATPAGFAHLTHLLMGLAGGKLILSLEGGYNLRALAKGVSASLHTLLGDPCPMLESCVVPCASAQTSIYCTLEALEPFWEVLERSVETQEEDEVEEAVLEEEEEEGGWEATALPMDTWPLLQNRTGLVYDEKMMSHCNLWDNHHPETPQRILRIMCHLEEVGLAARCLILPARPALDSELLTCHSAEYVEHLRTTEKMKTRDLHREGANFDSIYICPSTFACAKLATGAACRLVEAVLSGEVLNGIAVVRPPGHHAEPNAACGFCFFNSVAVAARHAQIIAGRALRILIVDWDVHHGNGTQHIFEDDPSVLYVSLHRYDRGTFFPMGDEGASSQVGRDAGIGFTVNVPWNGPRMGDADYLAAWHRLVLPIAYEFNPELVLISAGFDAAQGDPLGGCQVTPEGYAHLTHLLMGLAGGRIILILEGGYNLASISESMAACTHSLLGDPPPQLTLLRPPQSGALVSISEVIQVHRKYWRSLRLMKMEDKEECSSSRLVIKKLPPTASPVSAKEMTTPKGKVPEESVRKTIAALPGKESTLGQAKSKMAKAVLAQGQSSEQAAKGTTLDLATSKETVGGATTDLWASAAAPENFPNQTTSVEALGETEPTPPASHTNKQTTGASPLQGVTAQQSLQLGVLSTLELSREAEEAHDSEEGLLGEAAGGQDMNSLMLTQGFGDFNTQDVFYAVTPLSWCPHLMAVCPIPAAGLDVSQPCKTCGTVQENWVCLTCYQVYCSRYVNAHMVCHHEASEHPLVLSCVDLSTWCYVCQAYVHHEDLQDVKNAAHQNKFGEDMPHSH

[2] = cited from earlier work; for brain penetrance / BBB permeability: in words
[3] = Brain/plasma ratio, brain and hypothalamus penetrance; format: in vivo; settings: in words
[4] = 5 mg/kg i.p.; cited from earlier work
HDAC6 KO mice = experiment: 3-week treatment of DIO WT versus HDAC6 KO mice; format: in vivo; settings: for body weight, HDAC6 KO vs WT DIO mice: 3 weeks i.p., ACY775 10, ACY738 50, Tubastatin A 25 mg/kg/day
HDAC6 in AgRP neurons = experiment: DIO mice with HDAC6 deleted in AgRP neurons (HDAC6^Agrp-Δ); format: in vivo; settings: chronic treatment
Protocol: Design, validation, and stereotaxic injection of AAV viral vector carrying the guide RNAs targeting the mouse HDAC6 genomic locus. Three designed sgRNAs were concatenated and constructed into an AAV vector carrying a cre-enabled mCherry fluorescent marker.
Following the bilateral injection of AAV-sgHDAC6 into the arcuate nucleus of Agrp-ires-cre::LSL-Cas9-GFP (Agrp-Cre^+/−::Cas9^+/−) or control LSL-Cas9-GFP (Cas9^+/−) mice, immunostaining to detect the expression of mCherry and GFP was performed. AAV-sg-HDAC6 injected Agrp-Cre^+/−::Cas9^+/− (HDAC6^Agrp-Δ) and Cas9^+/− (HDAC6^WT) DIO mice (n=7 for each group) were fasted for 24 hours, and injected with ACY775 (10 mg/kg. i.p). Hourly total dark cycle food intake (g) (n=7 for each group) of these mice after ACY775 injection was measured. Body weight of AAV-sg-HDAC6 injected HDAC6^Agrp-Δ (n=11) and HDAC6^WT (n=6) mice were measured during 3 weeks of ACY775 (10 mg/kg/day, i.p.) treatment. Daily average food intake of HDAC6^Agro-Δ (n=11) and HDAC6^WT (n=6) mice was measured during 3 weeks of ACY775 (10 mg/kg/day, i.p.) treatment. 24-hour food intake average of HDAC Agrp- and HDAC6^WT mice during the 3 weeks of ACY775 treatment was assessed. Serum leptin level (ng/ml) of HDAC6^Agrp-Δ and HDAC6^WT mice after 2 weeks of ACY775 treatment (n=13 for HDAC6^WT and n=18 for HDAC6^Agrp-Δ) was measured. Lean mass (g); fat mass; and fat percentage (%) of HDAC Agrp- and HDAC6^WT DIO mice after 3 weeks of ACY775 treatment was measured by DEXA scan. The HDAC6 inhibitor responsive neurons in the dorsomedial hypothalamus (DMH) were assessed. Immunostaining and quantification of c-Fos expression was performed in the DMH of DIO mice following one-time ACY775 treatment (10 mg/kg, i.p.).

diet-induced obese mice = settings: cited from earlier work
DIO mice [5] = experiment: Acute leptin co-treatment in DIO mice (body weight, food intake 15 h); format: in vivo; settings: leptin 1 mg/kg i.p.
Protocol: DIO mice were pretreated with ACY775 (10 mg/kg/day, i.p.) or vehicle for 3 days, which was followed by co-treatment with ACY775 (or vehicle) and leptin (1 mg/kg, i.p.) (or saline) (n=9 for each group), % change in body weight 15 h after leptin treatment, food intake (g) during the 15 h period after leptin treatment. The results in were reproduced in two independent experiments.
Diet induced obese (DIO) mice were pretreated with ACY775 (10 mg/kg/day, i.p.) or vehicle for 3 days, which was followed by co-treatment with ACY775 (or vehicle) and leptin (1 mg/kg, i.p.) (or saline) (n=9 for each group). Mice were evaluated for % change in body weight 15 h after leptin treatment, and food intake (g) during the 15 h period after leptin treatment.
DIO mice were pretreated with ricolinostat (25 mg/kg/day, i.p.) or vehicle for 3 days, which was followed by co-treatment with ricolinostat (or vehicle) and leptin (1 mg/kg, i.p.) (or saline) (n=32 for each group). Change in body weight 15 h after leptin treatment, and food intake (g) during the 15 h period after leptin treatment were determined. The results were reproduced in two independent experiments.

[6] = tested on: STAT3^Tyr705 phosphorylation; experiment: Leptin-stimulated hypothalamic STAT3 phosphorylation in DIO mice; format: in vivo; settings: leptin 1 mg/kg i.p.
Protocol: DIO mice were pretreated with ACY775 (10 mg/kg/day, i.p.) or vehicle for 3 days, which was followed by a last injection of ACY775 (or vehicle) in the morning of fourth day. 6 hours later mice were injected with saline or leptin (1 mg/kg, i.p.) and hypothalamus were extracted after 45 minutes following the leptin injection. Representative immunoblots for STAT3^Tyr705 phosphorylation and total STAT3 from the hypothalamus. Quantification of the ratio of p-STAT3^Tyr705 to total-STAT3 signal in the immunoblots. The results were reproduced in three independent experiments. The results were analyzed hourly.
DIO mice were pretreated with ACY775 (10 mg/kg/day, i.p.) or vehicle for 3 days, which was followed by a last injection of ACY775 (or vehicle) in the morning of fourth day. 6 hours later mice were injected with saline or leptin (1 mg/kg, i.p.) and the hypothalamus were extracted after 45 minutes following the leptin injection.
6 hours later mice were injected with saline or leptin (1 mg/kg, i.p.) and hypothalamus were extracted after 45 minutes following the leptin injection. Immunoblots for STAT3^Tyr705 phosphorylation and total STAT3 from the hypothalamus were made to quantify the ratio of p-STAT3^Tyr705 to total-STAT3 signal in the immunoblots. The results were reproduced in two independent experiments.
DIO mice were pretreated with ricolinostat (50 mg/kg/day, i.p.) or vehicle 3 days, which was followed by a last injection of ricolinostat (or vehicle) in the morning of fourth day. 6 hours later mice were injected with saline or leptin (1 mg/kg, i.p.) and the hypothalamus were extracted after 45 minutes following the leptin injection. Immunoblots were performed for STAT3^Tyr705 phosphorylation and total STAT3 from the hypothalamus. The ratio of p-STAT3^Tyr705 to total STAT3 signal in the immunoblots was quantified.

Molecule | body weight effect of chronic treatment (DIO mice [1]) | HDAC6 inhibition in other brain regions (cerebrum, frontal lobe, temporal lobe, brainstem) (HDAC6) | HDAC6 inhibition in the hypothalamus (HDAC6) | brain penetrance / BBB permeability [2] | penetrance into the hypothalamus [3] | food intake and total body fat mass (DIO mice [1]) | body weight, HDAC6 KO vs WT DIO mice (HDAC6 KO mice) | other results
O=C(CCCCCCNC(=O)c1cnc(N(c2ccccc2)c2ccccc2Cl)nc1)NO [Citarinostat] | not effective in reducing body weight | inhibits HDAC6 in other brain regions | not in the hypothalamus | good brain penetrance |  |  |  | body weight effect of chronic treatment (DIO mice [1]; listed as citarinostat): ineffective weight lowering effect; HDAC6 inhibition in the hypothalamus (HDAC6; listed as citarinostat): does not show HDAC6 inhibition in the AGP neurons in the hypothalamus
CC1CCC(C(C)(C2CCC(C)CC2)C2CCC(C(C)C(C)CCCCC(C)C(C)C)CC2)CC1 (stereo not shown) [ACY257] | as effective as ACY775 in reducing body weight; also recorded: Significant weight loss; also recorded: as effective as ACY775 in lowering body weight | does not inhibit HDAC6 in other brain regions | inhibits HDAC6 in the hypothalamus | limited brain expression | high penetrance into the arctuate nucleus of the hypothalamus | significant reduction of food intake and total body fat mass |  | body weight effect of chronic treatment (DIO mice [1]; listed as ACY 257): greatly reduces body weight; AUC Brain/AUC Plasma Ratio ([2]; in vivo): 0.01; Cmax [4]: 1047 ng/mL; Plasma AUClast [4]: 871 (5 mg/kg i.p.) hr*ng/ml; T1/2 [4]: 8.15 h
CN1CCc2c(c3ccccc3n2Cc2ccc(C(=O)NO)cc2)C1 [Tubastatin A] |  |  | nor show HDAC6 inhibition in the hypothalamus | extremely low | neither of which have high penetrance into the hypothalamus |  | reduced the body weight of the HDAC6 KO mice the same as the wt mice | fat mass and fat %, HDAC6 KO vs WT (HDAC6 KO mice; DEXA): significantly lower in both wt and HDAC6 KO groups; lean mass, HDAC6 KO vs WT (HDAC6 KO mice; DEXA): not different; blood glucose, serum insulin and leptin levels, HDAC6 KO vs WT (HDAC6 KO mice; mouse, in vivo): reduced equally in the wt and HDAC6 KO group; food intake, HDAC6 KO vs WT DIO mice (HDAC6 KO mice; mouse, in vivo): reduced similarly; glucose tolerance and insulin sensitivity (GTT, ITT), HDAC6 KO vs WT (HDAC6 KO mice; mouse, in vivo): improved glucose tolerance and increased insulin sensitivity in both wt and the HDAC6 KO mice; anti-obesity effects in HDAC6^Agrp-Δ vs HDAC6^WT DIO mice (HDAC6 in AgRP neurons): did not change Tubastatin A's effects on suppressing feeding or body weight; brain/plasma ratio ([2]; in vivo): 0.18; anti-obesity effects reported by Cakir et al. (diet-induced obese mice): reduce food intake, fat mass, hepatic steatosis and improve systemic glucose homeostasis; also recorded: attenuated in animals with a defective central leptin-melanocortin circuitry
leptin: peptide hormone, product of the obese (ob) gene |  |  |  |  |  |  |  | body weight, leptin alone (DIO mice [5]): did not significantly alter their bodyweight; also recorded: did not change their bodyweight; food intake, leptin alone (DIO mice [5]): did not significantly change the food intake; hypothalamic STAT3^Tyr705 phosphorylation, leptin in vehicle-treated mice [6]: did not significantly increase STAT3^Tyr705 phosphorylation
CN(Cc1ccc(C(=O)NO)cc1F)CC12CC3CC(CC(C3)C1)C2 [Bavarostat, 4-(((((3r,5r,7r)-adamantan-1-yl)methyl)(methyl)amino)methyl)-3-fluoro-N-hydroxybenzamide] | Significant weight loss; also recorded: statistically significantly effective in reducing food intake and body weight |  |  | high brain penetrance | high penetrance of the hypothalamus | significant reduction of food intake and total body fat mass | treatment of wild type mice but not HDAC6 Knockout animals with bavarostat caused weight loss | 
